Measured values published in patent publication US6914045B2, “Glycopeptide antibiotics” (Wyeth Holdings Corporation, priority 2001, dated 2005).
Converted amounts (≈) assume the structure as drawn. Read-outs that look alike come from different tables or passages of the source. One block for each compound: values may come before it. Numbered stars: 1 amine (or outer) side, 2 acyl side, 3 side chain; on linkers, the order of the positions; unused ones are H or OH. Square brackets hold non-standard residues; d marks the D form. Peptide text beside a SMILES is read from it. ξ: configuration not given here. X1 = N=C1NCC(C(O)C(N[*:1])C(=O)[*:2])N1C1OC(CO)C(O)C(O)C1O; ξEnduracididine(βξ-OH,4'ξ) = N=C1NCC(C(O)C(N)C(=O)O)N1; ξCha(3ξ-Me) = CC(C1CCCCC1)C(N)C(=O)O; Cha = N[CH](CC1CCCCC1)C(=O)O

Key:
Assay in all cases: in vitro antibacterial evaluation, MIC by broth dilution
Format in all cases: cell-based
Enterococcus sp. = tested on: Enterococcus sp.
Method in brief: (§1)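 Read-out: the lowest concentration at which the test strain fails to grow. Serial dilutions (64-0.06 μg/mL) in Muller-Hinton II […], 5×10^5 CFU/mL inoculum, NCCLS M7-A2 procedure.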

Streptococcus sp. = tested on: Streptococcus sp.
Method in brief: as §1

Staphylococcus sp. = tested on: Staphylococcus sp.
Method in brief: as §1

Escherichia coli = tested on: Escherichia coli
Method in brief: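 Broth dilution MIC per NCCLS M7-A2 in Mueller-Hinton II medium, inoculum 5×10^5 CFU/mL, antibiotic range 64-0.06 μg/mL. MIC taken as lowest concentration inhibiting growth.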

- MIC Enterococcus avium (GC 4558) (Enterococcus sp.; Enterococcus avium (GC 4558), broth dilution, 18 hours at 35° C.): 4 µg/mL (≈ 4.14 µM)
- MIC Enterococcus faecalis (ATCC 29212) (Enterococcus sp.; Enterococcus faecalis (ATCC 29212), broth dilution, 18 hours at 35° C.): 8 µg/mL (≈ 8.27 µM)
- MIC Enterococcus faecalis (GC 4552) (Enterococcus sp.; Enterococcus faecalis (GC 4552), broth dilution, 18 hours at 35° C.): 8 µg/mL (≈ 8.27 µM)
- MIC Enterococcus faecalis (GC 4553) (Enterococcus sp.; Enterococcus faecalis (GC 4553), broth dilution, 18 hours at 35° C.): 4 µg/mL (≈ 4.14 µM)
- MIC Enterococcus faecalis (GC 4554) (Enterococcus sp.; Enterococcus faecalis (GC 4554), broth dilution, 18 hours at 35° C.): 16 µg/mL (≈ 16.5 µM)
- MIC Enterococcus faecalis (GC 6189) (Enterococcus sp.; Enterococcus faecalis (GC 6189), broth dilution, 18 hours at 35° C.): 4 µg/mL (≈ 4.14 µM)
- MIC Enterococcus faecium (GC 2243) (Enterococcus sp.; Enterococcus faecium (GC 2243), broth dilution, 18 hours at 35° C.): 2 µg/mL (≈ 2.07 µM)
- MIC Enterococcus faecium (GC 4556) (Enterococcus sp.; Enterococcus faecium (GC 4556), broth dilution, 18 hours at 35° C.): 8 µg/mL (≈ 8.27 µM)
- MIC Enterococcus faecium (GC 4557) (Enterococcus sp.; Enterococcus faecium (GC 4557), broth dilution, 18 hours at 35° C.): 2 µg/mL (≈ 2.07 µM)
- MIC Enterococcus faecalis (ATCC 29212) (Enterococcus sp.; strain ATCC 29212, broth dilution, 18 hours at 35° C.): 8 µg/mL (≈ 8.27 µM)
- MIC Enterococcus faecalis (GC 2242) (Enterococcus sp.; strain GC 2242, broth dilution, 18 hours at 35° C.): 8 µg/mL (≈ 8.27 µM)
- MIC Enterococcus faecium (GC 2243) (Enterococcus sp.; strain GC 2243, broth dilution, 18 hours at 35° C.): 2 µg/mL (≈ 2.07 µM)
- MIC Enterococcus faecalis (GC 2691) (Enterococcus sp.; strain GC 2691, broth dilution, 18 hours at 35° C.): 8 µg/mL (≈ 8.27 µM)
- MIC Enterococcus faecalis (GC 3059) (Enterococcus sp.; strain GC 3059, broth dilution, 18 hours at 35° C.): 8 µg/mL (≈ 8.27 µM)
- MIC Enterococcus faecalis (GC 4552) (Enterococcus sp.; strain GC 4552, broth dilution, 18 hours at 35° C.): 8 µg/mL (≈ 8.27 µM)
- MIC Enterococcus faecalis (GC 4553) (Enterococcus sp.; strain GC 4553, broth dilution, 18 hours at 35° C.): 4 µg/mL (≈ 4.14 µM)
- MIC Enterococcus faecalis (GC 4554) (Enterococcus sp.; strain GC 4554, broth dilution, 18 hours at 35° C.): 16 µg/mL (≈ 16.5 µM)
- MIC Enterococcus faecium (GC 4556) (Enterococcus sp.; strain GC 4556, broth dilution, 18 hours at 35° C.): 8 µg/mL (≈ 8.27 µM)
- MIC Enterococcus faecium (GC 4557) (Enterococcus sp.; strain GC 4557, broth dilution, 18 hours at 35° C.): 2 µg/mL (≈ 2.07 µM)
- MIC Enterococcus avium (GC 4558) (Enterococcus sp.; strain GC 4558, broth dilution, 18 hours at 35° C.): 4 µg/mL (≈ 4.14 µM)
- MIC Enterococcus faecalis (GC 6189) (Enterococcus sp.; strain GC 6189, broth dilution, 18 hours at 35° C.): 4 µg/mL (≈ 4.14 µM)
- MIC Streptococcus pneumoniae (ATCC 6301) (Streptococcus sp.; strain ATCC 6301, broth dilution, 18 hours at 35° C.): 1 µg/mL (≈ 1.03 µM)
- MIC Streptococcus pneumoniae (GC 1894) (Streptococcus sp.; strain GC 1894, broth dilution, 18 hours at 35° C.): 1 µg/mL (≈ 1.03 µM)
- MIC Streptococcus pyogenes (GC 4563) (Streptococcus sp.; strain GC 4563, broth dilution, 18 hours at 35° C.): 1 µg/mL (≈ 1.03 µM)
- MIC Streptococcus agalactiae (GC 4564) (Streptococcus sp.; strain GC 4564, broth dilution, 18 hours at 35° C.): 1 µg/mL (≈ 1.03 µM)
- MIC Streptococcus pneumoniae (GC 4565) (Streptococcus sp.; strain GC 4565, broth dilution, 18 hours at 35° C.): 4 µg/mL (≈ 4.14 µM)
- MIC Staphylococcus aureus (ATCC 29213) (Staphylococcus sp.; strain ATCC 29213, broth dilution, 18 hours at 35° C.): 2 µg/mL (≈ 2.07 µM)
- MIC Staphylococcus aureus (GC 1131) (Staphylococcus sp.; strain GC 1131, broth dilution, 18 hours at 35° C.): 4 µg/mL (≈ 4.14 µM)
- MIC Staphylococcus aureus (GC 3051) (Staphylococcus sp.; strain GC 3051, broth dilution, 18 hours at 35° C.): 2 µg/mL (≈ 2.07 µM)
- MIC Staphylococcus aureus (GC 3053) (Staphylococcus sp.; strain GC 3053, broth dilution, 18 hours at 35° C.): 4 µg/mL (≈ 4.14 µM)
- MIC Staphylococcus aureus (GC 4541) (Staphylococcus sp.; strain GC 4541, broth dilution, 18 hours at 35° C.): 4 µg/mL (≈ 4.14 µM)
- MIC Staphylococcus aureus (GC 4542) (Staphylococcus sp.; strain GC 4542, broth dilution, 18 hours at 35° C.): 2 µg/mL (≈ 2.07 µM)
- MIC Staphylococcus aureus-SMITH (GC 4543) (Staphylococcus sp.; strain GC 4543, broth dilution, 18 hours at 35° C.): 2 µg/mL (≈ 2.07 µM)
- MIC Staphylococcus aureus (GC 4544) (Staphylococcus sp.; strain GC 4544, broth dilution, 18 hours at 35° C.): 4 µg/mL (≈ 4.14 µM)
- MIC Staphylococcus aureus (GC 4545) (Staphylococcus sp.; strain GC 4545, broth dilution, 18 hours at 35° C.): 2 µg/mL (≈ 2.07 µM)
- MIC Coagulase Negative Staphylococcus (GC 4547) (Staphylococcus sp.; strain GC 4547, broth dilution, 18 hours at 35° C.): 2 µg/mL (≈ 2.07 µM)
- MIC Coagulase Negative Staphylococcus (GC 4548) (Staphylococcus sp.; strain GC 4548, broth dilution, 18 hours at 35° C.): 2 µg/mL (≈ 2.07 µM)
- MIC Coagulase Negative Staphylococcus (GC 4549) (Staphylococcus sp.; strain GC 4549, broth dilution, 18 hours at 35° C.): 1 µg/mL (≈ 1.03 µM)
- MIC Coagulase Negative Staphylococcus (GC 4551) (Staphylococcus sp.; strain GC 4551, broth dilution, 18 hours at 35° C.): 2 µg/mL (≈ 2.07 µM)
- MIC Escherichia coli (ATCC 25922) (Escherichia coli; strain ATCC 25922, broth dilution, 18 hours at 35° C.): 128 µg/mL (≈ 132 µM)
- MIC Escherichia coli (GC 4559) (Escherichia coli; strain GC 4559, broth dilution, 18 hours at 35° C.): 128 µg/mL (≈ 132 µM)
- MIC Escherichia coli (GC 4560) (Escherichia coli; strain GC 4560, broth dilution, 18 hours at 35° C.): 4 µg/mL (≈ 4.14 µM)
SMILES: CC(C1CCCCC1)C1NC(=O)CNC(=O)C(CO)NC(=O)C(C(O)C2CNC(=N)N2C2OC(CO)C(O)C(O)C2O)NC(=O)C(C(O)C2CNC(=N)N2)NC(=O)C(CC2CCCCC2)NC1=O (stereo not drawn) [Example 53, Cyclo[3-cyclohexylalanyl-3-(2-iminoimidazolidin-4-yl)seryl-3-(3-hexopyranosyl-2-iminoimidazolidin-4-yl)serylserylglycyl-3-cyclohexyl-2-aminobutanyl]] (cyclo(G[ξCha(3ξ-Me)][Cha][ξEnduracididine(βξ-OH,4'ξ)][X1]S); configuration not given here)
- MIC Staphylococcus haemolyticus (GC 4546) (Staphylococcus sp.; strain GC 4546, broth dilution, 18 hours at 35° C.): 1 µg/mL (≈ 1.03 µM)

SMILES: CC(c1ccccc1)C1NC(=O)CNC(=O)C(CO)NC(=O)C(C(O)C2CNC(=N)N2C2OC(CO)C(O)C(O)C2O)NC(=O)C(C(O)C2CNC(=N)N2)NC(=O)C(Cc2ccc3oc(-c4ccc5c(c4)Cc4ccccc4-5)nc3c2)NC1=O (stereo not drawn) [Example 37, Cyclo[3-[2-(9H-fluoren-2-yl)-1,3-benzoxazol-5-yl]alanyl-3-(2-iminoimidazolidin-4-yl)seryl-3-(3-hexopyranosyl-2-iminoimidazolidin-4-yl)serylserylglycyl-β-methylphenylalanyl]]
- MIC Enterococcus avium (GC 4558) (Enterococcus sp.): 8 µg/mL (≈ 6.9 µM)
- MIC Enterococcus faecalis (ATCC 29212) (Enterococcus sp.): 16 µg/mL (≈ 13.8 µM)
- MIC Enterococcus faecalis (GC 2242) (Enterococcus sp.): 16 µg/mL (≈ 13.8 µM)
- MIC Enterococcus faecalis (GC 2691) (Enterococcus sp.): 16 µg/mL (≈ 13.8 µM)
- MIC Enterococcus faecalis (GC 3059) (Enterococcus sp.): 16 µg/mL (≈ 13.8 µM)
- MIC Enterococcus faecalis (GC 4552) (Enterococcus sp.): 16 µg/mL (≈ 13.8 µM)
- MIC Enterococcus faecalis (GC 4553) (Enterococcus sp.): 4 µg/mL (≈ 3.45 µM)
- MIC Enterococcus faecalis (GC 4554) (Enterococcus sp.): 16 µg/mL (≈ 13.8 µM)
- MIC Enterococcus faecalis (GC 6189) (Enterococcus sp.): 16 µg/mL (≈ 13.8 µM)
- MIC Enterococcus faecium (GC 2243) (Enterococcus sp.): 8 µg/mL (≈ 6.9 µM)
- MIC Enterococcus faecium (GC 4556) (Enterococcus sp.): 16 µg/mL (≈ 13.8 µM)
- MIC Enterococcus faecium (GC 4557) (Enterococcus sp.): 4 µg/mL (≈ 3.45 µM)
- MIC Streptococcus agalactiae (GC 4564) (Streptococcus sp.): 16 µg/mL (≈ 13.8 µM)
- MIC Streptococcus pneumoniae (ATCC 6301) (Streptococcus sp.): 32 µg/mL (≈ 27.6 µM)
- MIC Streptococcus pneumoniae (GC 1894) (Streptococcus sp.): 16 µg/mL (≈ 13.8 µM)
- MIC Streptococcus pneumoniae (GC 4565) (Streptococcus sp.): 16 µg/mL (≈ 13.8 µM)
- MIC Streptococcus pyogenes (GC 4563) (Streptococcus sp.): 4 µg/mL (≈ 3.45 µM)
- MIC Coagulase Negative Staphylococcus (GC 4547) (Staphylococcus sp.): 16 µg/mL (≈ 13.8 µM)
- MIC Coagulase Negative Staphylococcus (GC 4548) (Staphylococcus sp.): 8 µg/mL (≈ 6.9 µM)
- MIC Coagulase Negative Staphylococcus (GC 4549) (Staphylococcus sp.): 8 µg/mL (≈ 6.9 µM)
- MIC Coagulase Negative Staphylococcus (GC 4551) (Staphylococcus sp.): 8 µg/mL (≈ 6.9 µM)
- MIC Coagulase Negative Staphylococcus (GC 6257) (Staphylococcus sp.): 4 µg/mL (≈ 3.45 µM)
- MIC Staphylococcus aureus (ATCC 29213) (Staphylococcus sp.): 16 µg/mL (≈ 13.8 µM)
- MIC Staphylococcus aureus (GC 1131) (Staphylococcus sp.): 8 µg/mL (≈ 6.9 µM)
- MIC Staphylococcus aureus (GC 3051) (Staphylococcus sp.): 8 µg/mL (≈ 6.9 µM)
- MIC Staphylococcus aureus (GC 3053) (Staphylococcus sp.): 8 µg/mL (≈ 6.9 µM)
- MIC Staphylococcus aureus (GC 4541) (Staphylococcus sp.): 8 µg/mL (≈ 6.9 µM)
- MIC Staphylococcus aureus (GC 4542) (Staphylococcus sp.): 8 µg/mL (≈ 6.9 µM)
- MIC Staphylococcus aureus (GC 4544) (Staphylococcus sp.): 8 µg/mL (≈ 6.9 µM)
- MIC Staphylococcus aureus (GC 4545) (Staphylococcus sp.): 16 µg/mL (≈ 13.8 µM)
- MIC Staphylococcus aureus-SMITH (GC 4543) (Staphylococcus sp.): 8 µg/mL (≈ 6.9 µM)
- MIC Staphylococcus haemolyticus (GC 4546) (Staphylococcus sp.): 8 µg/mL (≈ 6.9 µM)
- MIC Escherichia coli (ATCC 25922) (Escherichia coli): 128 µg/mL (≈ 110 µM)
- MIC Escherichia coli (GC 4559) (Escherichia coli): >128 µg/mL
- MIC Escherichia coli (GC 4560) (Escherichia coli): 4 µg/mL (≈ 3.45 µM)
